# Test system: horse plasma
# Assay: Thrombelastography of horse plasma, coagulation study (no tPA)
# Type: biochemical
# Parameters: increase in TTG vs control / decrease in MRTG vs control / decrease in TTG vs control / decrease in MRTG vs control sample / decrease in TTG vs control sample / increase in MRTG vs control sample / increase in TTG vs control sample: concentration or dose not given beside the values
# Details: for MRTG / TMRTG / TTG / MA / R / α: PHA 10 mM, CORM-2 100 μM
# Method: Blood was collected directly into plastic tubes containing 0.105 M sodium citrate (9:1, v/v) from the jugular vein of ten clinically normal grade and American Quarter Horse mares between 400 and 600 kg. Three additional horses to be subsequently described with acute gastrointestinal disease had blood samples similarly collected. The mares were group-housed in corrals. Plasma was obtained by centrifugation of citrated whole blood at 3000×g for 15 minutes and immediately frozen at −80° C. Plasma was subsequently shipped on dry ice and stored at −80° C. until thrombelastographic analysis.
# The final volume for all subsequently described plasma sample mixtures was 359.6 μl. Sample composition for this series of experiments consisted of 326 μl of plasma; 10 μl of tissue factor reagent (0.1% final concentration in dH2O; Diagnostica Stago S.A.S., Asnieres sur Seine, France); 3.6 μl of dH2O, or 3.6 μl dH2O containing the heme-binding reductant phenylhydroxylamine (PHA, 10 mM final concentration, Sigma-Aldrich, Saint Louis, Mo., USA), or 3.6 μl of dimethyl sulfoxide with CORM-2 (100 μM final concentration; Sigma-Aldrich, Saint Louis, Mo., USA); and 20 μl of 200 mM CaCl2. As previously described in human plasma (McMichael et al., 2011, Blood Coagul Fibrinolysis, 22: 424-430), this diagnostic panel is designed to determine hemostatic kinetic changes following of formation of carboxyhemefibrinogen (Fe^+2 state) after exposure to CO released from CORM-2 and to determine the effects of formation of methemefibrinogen (Fe^+3 state) after exposure to PHA. The relative change from baseline kinetics caused by exposure to CORM-2 and PHA allow determination of the balance between oxy/carboxy/methemefibrinogen concentrations in human plasma (McMichael et al., 2011, Blood Coagul Fibrinolysis, 22: 424-430).
# Plasma sample mixtures were placed in a disposable cup in a computer-controlled Thrombelastograph® hemostasis system (Model 5000, Haemoscope Corp., Niles, Ill., USA), with addition of CaCl2 as the last step to initiate clotting. Data were collected at 37° C. for 15 min in the first series of experiments involving coagulation alone, whereas in the experiments involving fibrinolysis data were collected until clot lysis time was observed. Elastic modulus-based parameters previously described were determined (Nielsen et al., 2009, Blood Coagul Fibrinolysis, 20: 377-380; Nielsen et al., 2009, Blood Coagul Fibrinolysis, 20: 448-455). The nomenclature used to describe these phenomena is as follows:
# Time to maximum rate of thrombus generation (TMRTG): This is the time interval (min) observed prior to maximum speed of clot growth.
# Maximum rate of thrombus generation (MRTG): This is the maximum velocity of clot growth observed (dynes/cm^2/sec).
# Total Thrombus Generation (TTG): This is the total area under the velocity curve during clot growth (dynes/cm^2), representing the amount of clot strength generated during clot growth.
# Thrombelastographic data are presented as mean±SD or as individual animal parameter values as appropriate. The effects of addition of CORM-2 and PHA on coagulation and fibrinolytic kinetic parameters were analyzed with one way repeated measures analysis of variance, utilizing Holm-Sidak post hoc test (SigmaStat 3.1, Systat Software, Inc., San Jose, Calif., USA) as appropriate. A P value of <0.05 was considered significant.
# [1] = horse with lethal disease, no tPA
# [2] = horse with lethal enteritis, no tPA
# [3] = horse with mild disease, no tPA
# [4] = horse with mild enteritis, no tPA
# [5] = horse with moderate disease, no tPA
# [6] = horse with moderate enteritis, no tPA
Structure (SMILES),MRTG [1],TMRTG [1],TTG [1],MRTG [3],TMRTG [3],TTG [3],MRTG [5],TMRTG [5],TTG [5],MA (normal horses),MRTG (normal horses),R (normal horses),TMRTG (normal horses),TTG (normal horses),α (normal horses),other results
"[C-]#[O+].[C-]#[O+].[C-]#[O+].[C-]#[O+].[C-]#[O+].[C-]#[O+].[Cl][Ru][Cl].[Cl][Ru][Cl] [CORM-2, tricarbonyldichlororuthenium (II) dimer]",5.0 dynes/cm^2/sec,3.7 min,126 dynes/cm^2,10.2 dynes/cm^2/sec,2.9 min,308 dynes/cm^2,9.1 dynes/cm^2/sec,2.4 min,238 dynes/cm^2,40.4 ± 3.4,13.0 ± 2.9 dynes/cm^2/sec,2.0 ± 0.4,2.8 ± 0.5 min,342 ± 48 dynes/cm^2,80.2 ± 2.1,"increase in MRTG vs control sample [2]: 67%; increase in TTG vs control sample [2]: 97%; increase in MRTG vs control sample [4]: 16%; increase in TTG vs control sample [4]: 25%; increase in MRTG vs control sample [6]: 28%; increase in TTG vs control sample [6]: 47%; increase in TTG vs control (normal horses, no tPA): 9%"
"ONc1ccccc1 [PHA, phenylhydroxylamine]",0.1 dynes/cm^2/sec,8.2 min,2 dynes/cm^2,4.8 dynes/cm^2/sec,3.9 min,177 dynes/cm^2,3.9 dynes/cm^2/sec,3.5 min,126 dynes/cm^2,24.6 ± 2.7,6.2 ± 1.7 dynes/cm^2/sec,2.4 ± 0.4,3.4 ± 0.6 min,166 ± 23 dynes/cm^2,71.7 ± 3.6,"effect on coagulation [2]: essentially extinguished coagulation; decrease in MRTG vs control sample [4]: 45%; decrease in TTG vs control sample [4]: 28%; decrease in MRTG vs control sample [6]: 45%; decrease in TTG vs control sample [6]: 22%; decrease in MRTG vs control (normal horses, no tPA): 54%; decrease in TTG vs control (normal horses, no tPA): 47%"
